Data taken from PubChem BioAssay AID1204 (EPA DSSTox, 2008).
Records with an inconclusive call do not appear. The source made the active and inactive calls.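 Rule for the calls: active = relative estrogen receptor binding affinity above 1E-5, where estradiol scores 100; inconclusive = weak binder, under half inhibition at top dose, or affinity below 1E-5; inactive = no binding seen, affinity zero.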

System: estrogen receptor (rat uterine cytosol)
Test: DSSTox (NCTRER) National Center for Toxicological Research Estrogen Receptor Binding Database;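 for relative binding affinity: ratio of estradiol IC50 over compound IC50 times 100 so estradiol equals 100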
Conditions: rat uterine cytosol ER competitive binding, RBA; for relative binding affinity: active compounds read high
Source text: Researchers within FDA's National Center for Toxicological Research (NCTR) generated a database of experimental estrogen receptor binding results for the express purpose of developing improved QSAR models to predict ER binding affinities.The NCTR ER database is a structurally diverse set of natural, synthetic, and environmental estrogens covering most known estrogenic classes and spanning a wide range of biological activity. It represents the largest published ER binding database of same-assay results generated in a single laboratory. […] Information on the percent purity and purchasing source for all chemicals are not included in the DSSTox SDF, but can be obtained from the original NCTR ER Source database and Main Citations listed below. The main citation (Fang et al., 2001) surveys the NCTR ER database from a chemical class based, structure-activity relationship (SAR) perspective. Qualitative SAR characteristics of the NCTR ER database are discussed and a set of general hierarchical rules for identifying potential estrogens are presented. The DSSTox NCTRER SDF augments the original NCTR ER database with chemical class and SAR information abstracted from Fang et al. (2001). The DSSTox SDF file supplements the measured ER relative binding affinity for each chemical (ER_RBA) with chemical class assignment to one of 6 major estrogenic classes further divided into 20 subclasses (ChemClass_ERB), along with a qualitative activity measure, ActivityCategory_ER_RBA. A brief narrative SAR rationale pertaining to ER RBA patterns observed by Fang et al. (2001) for each of the 20 subclasses within the database are provided in the field, ActivityCategory_Rationale_ChemClass_ERB. The original NCTR ER database, from which the expanded DSSTox NCTRER was formed, is contained within a larger Endocrine Disruptor Knowledge Base (EDKB) accessible from the FDA Source Website. That website provides online access to a relational database comprised of in vitro and in vivo experimental data for about 2000 natural and synthetic compounds, much of this extracted from the literature and representing testing in many laboratories. Data are included for biological assays that measure estrogenic and androgenic activity. Estrogenic endpoints include in vitro assays for estrogen receptor competitive binding affinity, cell proliferation, and reporter-gene assays, and in vivo assays for uterotrophic activity (i.e., uterine weight gain and vaginal cornification). The database also contains a bibliography of over 1200 citations, many of which include abstracts.
Estrogen receptor relative binding affinity is determined using a competitive receptor binding assay as described in NCTRER Ref (Blair et al., 2000). Briefly, a chemical competes with radiolabeled E2 (i.e., estradiol) for binding to the ER in rat uterine cytosol and the concentration of chemical that causes 50% inhibition of E2 binding (i.e., IC50) is measured. The ER_RBA is calculated by dividing the IC50 of E2 (9X10-10M) by the IC50 of the competitor and multiplying by 100 (E2 RBA = 100). The validated assay tested 1nM E2 with concentrations of competitor ranging from 1nM to 1mM. The larger the ER_RBA values, the greater the binding affinity; ER_RBA > 100 means compound has greater binding affinity than natural ER ligand, E2. […] Activity Score is mapping of LOG_ER_RBA values (ER-RBA>1E-5), spanning activity range [MIN, MAX] onto Integer 20-100 Activity range, where 100 is highest potency and 20 is lowest active potency. If Activity Outcome is "active": Activity Score = 80 * INTEGER[(LOG_ER_RBA - MIN)/(MAX […] MIN)]. If Activity Outcome is "inconclusive" (i.e., slight binder): Activity Score = 5.

[1] = ChemClass_ERB: Diphenylmethanes Diphenolalkanes
[2] = ChemClass_ERB: Phytoestrogens Chalconoids
[3] = ChemClass_ERB: Diphenylmethanes DDTs
[4] = ChemClass_ERB: Steroids With aromatic A ring
[5] = ChemClass_ERB: Phytoestrogens Flavones
[6] = ChemClass_ERB: Phytoestrogens Flavanones

Q: How did the relative binding affinity [1] turn out when `CC(C)(c1ccccc1)c1ccc(O)cc1` was run?
A: 0.00501%

Q: With `O=C(/C=C/c1ccc(O)cc1)c1ccc(O)cc1O` as the compound, how does the relative binding affinity [2] read?
A: 0.055%

Q: For `O=C1CCC(N2C(=O)c3ccccc3C2=O)C(=O)N1` (stereo not given), which outcome (ChemClass_ERB: Misc) is on record?
A: inactive

Q: `CC(=O)[C@H]1CC[C@H]2[C@@H]3CCC4=CC(=O)CC[C@]4(C)[C@H]3CC[C@]12C` was tested. Which outcome (ChemClass_ERB: Steroids Without aromatic A ring) did it give?
A: inactive

Q: With `O=C(C(=O)c1ccc(O)cc1O)c1ccc(O)cc1O` as the compound, how does the relative binding affinity (ChemClass_ERB: DES Hexestrol derivatives) read?
A: 0.209%

Q: `CC/C(=C(/CC)c1ccc(O)cc1)c1ccc(O)cc1` was tested. Which relative binding affinity (ChemClass_ERB: DES Derivatives) did it give?
A: 398%

Q: `COc1ccc(C(c2ccc(OC)cc2)C(Cl)(Cl)Cl)cc1` was tested. Which outcome [3] did it give?
A: inactive

Q: For `O=C(/C=C/c1ccc(O)cc1)c1ccccc1`, which relative binding affinity [2] is on record?
A: 0.00281%

Q: How did the relative binding affinity [4] turn out when `C[C@]12CC[C@@H]3c4ccccc4CC[C@H]3[C@@H]1CCC2=O` was run?
A: 0.0063%

Q: With `Nc1nc2ncc(CNc3ccc(C(=O)N[C@@H](CCC(=O)O)C(=O)O)cc3)nc2c(=O)[nH]1` as the compound, how does the outcome (ChemClass_ERB: Misc) read?
A: inactive

Q: For `Clc1ccc(C(c2ccc(Cl)cc2)C(Cl)(Cl)Cl)cc1`, which outcome [3] is on record?
A: inactive

Q: For `Oc1ccc(Cc2ccc(O)cc2)cc1`, which relative binding affinity [1] is on record?
A: 0.00095%

Q: With `Nc1ccc(Cc2ccc(N)cc2)cc1` as the compound, how does the outcome (ChemClass_ERB: Misc) read?
A: inactive

Q: `C[C@@H]1CCC[C@H](O)CCC/C=C/c2cc(O)cc(O)c2C(=O)O1` was tested. Which relative binding affinity (ChemClass_ERB: Phytoestrogens Mycoestrogens) did it give?
A: 0.204%

Q: `O=C(O)c1ccccc1C(c1ccc(O)cc1)c1ccc(O)cc1` was tested. Which relative binding affinity [1] did it give?
A: 0.00021%

Q: `Oc1ccc(C(c2ccc(O)cc2)C(Cl)(Cl)Cl)cc1` was tested. Which relative binding affinity [3] did it give?
A: 0.251%

Q: How did the relative binding affinity [4] turn out when `C[C@]12CC[C@@H]3c4ccc(O)cc4CC[C@H]3[C@@H]1CCC2=O` was run?
A: 7.24%

Q: Which outcome [5] does the source give for `O=c1c(O)c(-c2ccc(O)c(O)c2)oc2cc(O)cc(O)c12` here?
A: inactive

Q: With `COc1ccc2c(c1)CC[C@@H]1[C@@H]2CC[C@]2(C)[C@@H](O)[C@H](O)C[C@@H]12` as the compound, how does the relative binding affinity [4] read?
A: 0.0224%

Q: Which outcome (ChemClass_ERB: Phenols Alkyloxy) does the source give for `C/C=C/c1ccc(O)c(OC)c1` here?
A: inactive

Q: Which outcome [1] does the source give for `CC(C)(C)c1cc(Cc2cc(C(C)(C)C)c(O)c(C(C)(C)C)c2)cc(C(C)(C)C)c1O` here?
A: inactive

Q: Which relative binding affinity [1] does the source give for `O=S1(=O)OC(c2ccc(O)cc2)(c2ccc(O)cc2)c2ccccc21` here?
A: 0.00056%

Q: `O=c1c(-c2ccc(O)cc2)coc2cc(O[C@@H]3O[C@H](CO)[C@@H](O)[C@H](O)[C@H]3O)cc(O)c12` was tested. Which outcome (ChemClass_ERB: Phytoestrogens Isoflavones) did it give?
A: inactive

Q: How did the relative binding affinity (ChemClass_ERB: Phenols Alkyl) turn out when `CCCCCCCCCc1ccc(O)cc1` was run?
A: 0.0295%

Q: `Oc1ccc(-c2cc(Cl)c(Cl)c(Cl)c2Cl)cc1` was tested. Which relative binding affinity (ChemClass_ERB: Biphenyls PCBs) did it give?
A: 0.23%

Q: For `O=c1cc(-c2ccc(O)cc2)oc2ccc(O)cc12`, which relative binding affinity [5] is on record?
A: 0.151%

Q: With `CCNc1nc(Cl)nc(NC(C)C)n1` as the compound, how does the outcome (ChemClass_ERB: Misc) read?
A: inactive

Q: How did the outcome (ChemClass_ERB: Misc) turn out when `CN(C)c1ccc(Cc2ccc(N(C)C)cc2)cc1` was run?
A: inactive

Q: `CCCCCCC=O` was tested. Which outcome (ChemClass_ERB: Misc) did it give?
A: inactive

Q: `O=C1C[C@@H](c2ccc(O)cc2)Oc2cc(O)cc(O)c21` was tested. Which relative binding affinity [6] did it give?
A: 0.0074%

Q: `Oc1ccc(-c2ccc(Cl)cc2)cc1` was tested. Which relative binding affinity (ChemClass_ERB: Biphenyls PCBs) did it give?
A: 0.0066%

Q: For `Oc1cc(O)c2c(c1)O[C@H](c1ccc(O)c(O)c1)[C@@H](O)C2`, which outcome [6] is on record?
A: inactive

Q: How did the relative binding affinity (ChemClass_ERB: DES Triphenylethylenes) turn out when `CC/C(=C(/c1ccc(OCCN(C)C)cc1)c1cccc(O)c1)c1ccccc1` was run?
A: 15.1%

Q: For `CCc1cccc(CC)c1N(COC)C(=O)CCl`, which outcome (ChemClass_ERB: Misc) is on record?
A: inactive

Q: Which relative binding affinity [4] does the source give for `C[C@]12CC[C@@H]3c4ccc(O)c(O)c4CC[C@H]3[C@@H]1CC[C@@H]2O` here?
A: 66.1%
